One assay addresses SOD1 (Homo sapiens, UniProt P00441). Format: binding. As for the experimental part:
A computational search was performed in PubChem to identify all compounds containing a cyclic disulfide motif. […] Of these, 69 compounds cross-linked SOD1 with a wide array of reaction rates. Only 2 compounds could cross-link 100% of SOD1 during the assay, including one 5-membered cyclic disulfide (4-Amino-1,2-Dithiolane-4-Carboxylic Acid) and one 6-membered cyclic thiosulfinate (1,2-dithiane 1-oxide).

The subject of another assay is transthyretin. The following applies: only approved drug with a kinetic stabilizing mechanism; cited from earlier work.

Chain of SOD1 (P00441 2-154 limits assumed): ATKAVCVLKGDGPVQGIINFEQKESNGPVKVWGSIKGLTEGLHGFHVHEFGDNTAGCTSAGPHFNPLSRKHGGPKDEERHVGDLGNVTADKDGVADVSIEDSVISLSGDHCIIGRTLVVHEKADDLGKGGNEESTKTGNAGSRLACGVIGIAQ

Take `NC1(C(=O)O)CSSC1` [4-Amino-1,2-Dithiolane-4-Carboxylic Acid]: on SOD1, the “SOD1 cross-linked during the assay” value amounted to 100%.

On to `O=C(O)c1ccc2nc(-c3cc(Cl)cc(Cl)c3)oc2c1` [tafamidis], for which the “increase in thermal stability” value in the assay on transthyretin was 6 °C.

(Values after publication PMC10826971, “Evaluating protein cross-linking as a therapeutic strategy to stabilize SOD1 variants in a mouse model of familial ALS” (PLOS Biology, 2024).)
